Laboratory results taken from PMC11294565, “Structural insights into strigolactone catabolism by carboxylesterases reveal a conserved conformational regulation” (Nature Communications, 2024).

Assays:
[1] = target: T1, AtCXE20 (Arabidopsis thaliana, UniProt Q9LVB8); test: differential scanning fluorimetry (Sypro Orange); format: binding; settings: 10 μM protein, 500 μM rac-GR24; 20 mM HEPES, 150 mM NaCl, 1 mM TCEP
T1 construct: gene CXE20; full length (residues 1-327; cap 1-26, core 53-327), codon-optimized synthetic gene, E. coli BL21(DE3), 6xHis-SUMO tag cleaved off
T1 sequence (Q9LVB8 1-327): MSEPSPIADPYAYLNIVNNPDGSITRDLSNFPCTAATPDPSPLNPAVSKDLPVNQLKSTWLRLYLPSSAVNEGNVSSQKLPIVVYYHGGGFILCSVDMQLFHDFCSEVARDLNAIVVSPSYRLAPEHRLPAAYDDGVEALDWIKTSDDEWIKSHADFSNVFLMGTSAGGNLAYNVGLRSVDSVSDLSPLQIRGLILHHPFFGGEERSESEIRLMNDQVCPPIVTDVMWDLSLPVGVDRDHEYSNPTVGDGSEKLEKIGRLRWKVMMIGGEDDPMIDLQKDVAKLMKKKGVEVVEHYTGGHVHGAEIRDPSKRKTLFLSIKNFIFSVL

[2] = target: T2, AtCXE15 (Arabidopsis thaliana, UniProt Q9FG13); test: X-ray crystal structure (soak), […] Å; format: binding; settings: covalent; D-ring of GR24 linked to S169; 1 mM rac-GR24 soak
T2 construct: gene CXE15; full length (residues 1-329; NTH cap 1-21, core 32-329), E. coli BL21(DE3), 6xHis-SUMO tag cleaved off
T2 sequence (Q9FG13 whole entry, the tested form may be a part): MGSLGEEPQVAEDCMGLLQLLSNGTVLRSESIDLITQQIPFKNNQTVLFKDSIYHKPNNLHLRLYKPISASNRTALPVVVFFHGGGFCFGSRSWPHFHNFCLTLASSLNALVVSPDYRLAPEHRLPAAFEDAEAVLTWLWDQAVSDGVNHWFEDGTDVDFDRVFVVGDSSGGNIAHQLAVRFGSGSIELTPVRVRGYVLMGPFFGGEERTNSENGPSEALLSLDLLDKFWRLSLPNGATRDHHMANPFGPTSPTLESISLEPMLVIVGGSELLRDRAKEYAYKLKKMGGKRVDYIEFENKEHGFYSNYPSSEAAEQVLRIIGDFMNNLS

[3] = target: T2, AtCXE15; test: differential scanning fluorimetry (Sypro Orange); format: binding; settings: 10 μM protein, 500 μM rac-GR24; 20 mM HEPES, 150 mM NaCl, 1 mM TCEP
[4] = system: T3, CXE15^CXE20-NTα/β; test: fluorescence hydrolysis assay, Michaelis-Menten fit; format: biochemical, Arabidopsis thaliana; settings: 50 mM MES pH 6.0, 250 mM NaCl, 1 mM DTT; 5 μM enzyme
T3 construct: CXE15 core with its NTH replaced by the NT-α/β of CXE20 (one polypeptide)

[5] = target: T1, AtCXE20; test: as above; format: biochemical; settings: 50 mM MES pH 6.0, 250 mM NaCl, 1 mM DTT; 1 μM enzyme
[6] = target: T2, AtCXE15; test: as above; format: biochemical; settings: 50 mM MES pH 6.0, 250 mM NaCl, 1 mM DTT; 1 μM enzyme
[7] = system: T4, CXE20^CXE15-NTH; test: as above; format: biochemical, Arabidopsis thaliana; settings: 50 mM MES pH 6.0, 250 mM NaCl, 1 mM DTT; 2 μM enzyme
T4 construct: CXE20 core with its NT-α/β replaced by the NTH of CXE15 (one polypeptide)

[8] = target: CXE15^ΔNTH (Arabidopsis thaliana, UniProt Q9FG13); test: as above; format: biochemical; settings: 50 mM MES pH 6.0, 250 mM NaCl, 1 mM DTT; 2 μM enzyme; no NTH peptide added
Chain of CXE15^ΔNTH (Q9FG13 46-329, stated change not applied): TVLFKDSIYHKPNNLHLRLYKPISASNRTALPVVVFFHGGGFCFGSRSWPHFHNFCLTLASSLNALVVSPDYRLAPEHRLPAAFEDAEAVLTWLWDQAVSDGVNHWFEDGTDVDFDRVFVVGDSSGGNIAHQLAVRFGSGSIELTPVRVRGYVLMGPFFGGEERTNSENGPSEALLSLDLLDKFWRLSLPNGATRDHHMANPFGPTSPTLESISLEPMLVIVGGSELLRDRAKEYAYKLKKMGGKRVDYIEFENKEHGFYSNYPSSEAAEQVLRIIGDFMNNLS

ΔTm [1] | ΔTm [3] | Km [4] | Km [5] | Km [6] | Km [7] | Km [8] | Structure (SMILES) | X-ray crystal structure (soak), 2.3 Å [2]
−5.0 °C | +1.0 °C |  |  |  |  |  | CC1=CC(OC=C2C(=O)OC3c4ccccc4CC23)OC1=O (racemic) [rac-GR24] | hydrolyzed lactone D-ring of rac-GR24 covalently linked to S169 of the catalytic triad
 |  | 19.6 ± 2.5 µM | 8.6 ± 2.3 µM | 21 ± 4.7 µM | 7.5 ± 1.1 µM | 62 ± 12.6 µM | CCOC(=O)c1ccccc1-c1c2ccc(=O)cc-2oc2cc(OC3C=C(C)C(=O)O3)ccc12 (centres unmarked) [Yoshimulactone Green] | 
